Results as given in patent US20100239556A1, “PROMOTING ECM PRODUCTION BY FIBROBLAST CELLS AND/OR PROMOTING MIGRATION OF FIBROBLAST CELLS IN A BIOLOGICAL SYSTEM” (TGR BioScience Pty Ltd., priority 2006, published 2010).

B1: horse radish peroxidase (protein, UniProt P00433 31-338, looked up)
Peroxidase C1A: QLTPTFYDNSCPNVSNIVRDTIVNELRSDPRIAASILRLHFHDCFVNGCDASILLDNTTSFRTEKDAFGNANSARGFPVIDRMKAAVESACPRTVSCADLLTIAAQQSVTLAGGPSWRVPLGRRDSLQAFLDLANANLPAPFFTLPQLKDSFRNVGLNRSSDLVALSGGHTFGKNQCRFIMDRLYNFSNTGLPDPTLNTTYLQTLRGLCPLNGNLSALVDFDLRTPTIFDNKYYVNLEEQKGLIQSDQELFSSPNATDTIPLVRSFANSTQTFFNAFVEAMDRMGNITPLTGTQGQIRLNCRVVNSNS

Key:
dermis = assay: Cellular integration and ECM production of dermal filler substances implanted intradermally; type: in vivo, Sprague-Dawley rats; conditions: one month after implantation; for cellular integration and ECM production within Hylaform: LP 1 mg/ml or HRP 500 μg/ml added to Hylaform, or Hylaform alone; for cellular integration and ECM production within Restylane: LP 1 mg/ml or HRP 500 μg/ml added to Restylane, or Restylane alone
Procedure: The ability of agents with peroxidase activity to stimulate the production of endogenous ECM within, or about, a substrate when implanted in vivo was assessed. Substrates used for these experiments were two hyaluronic acid based dermal filler substances; Hylaform® Plus containing 5.5 mg/ml hylan B gel and Restylane® containing 20 mg/ml stabilised hyaluronic acid, and Sculptra® containing poly-L-lactic acid. The two pre-prepared “ready to use” hyaluronic acid filler substances were diluted 1:2 with 1 mg/ml HRP to give a final concentration of 500 μg/ml HRP whilst Sculptra powder was dissolved in a lmg/ml LP solution to final concentrations of 25 and 50 mg/ml poly-L-lactic acid. As described in example 8, female Sprague-Dawley rats were lightly anaesthetized and a volume of approximately 50 μl of the filler substance+protein with peroxidase activity or filler substance alone were injected intradermally into different sites on their dorsum. The rats were returned to their cage and left alone for 7 days or 1 month after which they were killed by CO2 asphyxiation and the skin at the injection sites collected for histological assessment as described in example 8, or immunohistochemical staining for collagen I using the method outlined previously for the SMA immunohistochemistry (in Example 3) with the variation that 5 μg/ml rabbit anti Collagen-I (Rocklands Immunochemicals) was used as the primary antibody.

[1] = system: primary-adult fibroblast cells; assay: Fibroblast infiltration into INTEGRA scaffold (SMA immunohistochemistry); type: cell-based, human
Description: INTEGRA® was cut into lcm x lcm pieces using a sterile scalpel, the pieces transferred to a petri dish using sterile forceps and washed four times each with PBS followed by serum-free DMEM, to remove the alcohol storage medium and to equilibrate the porous scaffold for exposure to cells. After the last wash, the INTEGRA® pieces were transferred to the wells of a 12 well tissue culture plate (collagen layer facing up) immersed in media containing proteins having peroxidase activity. This “pre-treatment” of the INTEGRA® with proteins having peroxidase activity was performed for up to 16 hours at 37° C. in a CO2 incubator. After the “pre-incubation” period, the media was replaced with fresh DMEM supplemented with 10% FBS (ie normal growth media as the control) containing 5×10^5 human fibroblast cells plus or minus proteins having peroxidase activity. After allowing 24 hours for the fibroblast cells to attach to the collagen matrix of the INTEGRA® scaffold, the INTEGRA® pieces were transferred to fresh 12 well plates to ensure any cells not attached to the matrix surface were removed. Fresh media containing proteins with peroxidase activity were added to the wells and the INTEGRA® pieces incubated for up to 14 days (“post-treatment” period) with the media changed every 7 days as necessary. […]

HFF cells = assay: as above; type: cell-based, human; conditions: 6 days
Description: INTEGRA® was cut into lcm x lcm pieces using a sterile scalpel, the pieces transferred to a petri dish using sterile forceps and washed four times each with PBS followed by serum-free DMEM, to remove the alcohol storage medium and to equilibrate the porous scaffold for exposure to cells. After the last wash, the INTEGRA® pieces were transferred to the wells of a 12 well tissue culture plate (collagen layer facing up) immersed in media containing proteins having peroxidase activity. This “pre-treatment” of the INTEGRA® with proteins having peroxidase activity was performed for up to 16 hours at 37° C. in a CO2 incubator. […]
Additional experiments were performed as described above using HFF cells and varying the period of application of the proteins having peroxidase activity to include a “pre-treatment” application only (ie INTEGRA® incubated with SBP 25 μg/ml for up to 16 hours prior to the addition of cells), a “pre-treatment” and “post-treatment” application (ie INTEGRA® pre-treated with SBP and SBP added to the culture media once the INTEGRA had been seeded with cells) and a “post-treatment” application only (ie SBP added to the culture media once the INTEGRA® had been seeded with cells). The INTEGRA® was harvested after 6 days in culture and the number of SMA-positive fibroblast cells counted in five representative fields of view of sections from each condition.

adult fibroblast cells = assay: ECM production within INTEGRA scaffold (collagen I immunohistochemistry); type: cell-based, human
Description: INTEGRA® was cut into lcm x lcm pieces using a sterile scalpel, the pieces transferred to a petri dish using sterile forceps and washed four times each with PBS followed by serum-free DMEM, to remove the alcohol storage medium and to equilibrate the porous scaffold for exposure to cells. After the last wash, the INTEGRA® pieces were transferred to the wells of a 12 well tissue culture plate (collagen layer facing up) immersed in media containing proteins having peroxidase activity. This “pre-treatment” of the INTEGRA® with proteins having peroxidase activity was performed for up to 16 hours at 37° C. in a CO2 incubator. After the “pre-incubation” period, the media was replaced with fresh DMEM supplemented with 10% FBS (ie normal growth media as the control) containing 5×10^5 human fibroblast cells plus or minus proteins having peroxidase activity. After allowing 24 hours for the fibroblast cells to attach to the collagen matrix of the INTEGRA® scaffold, the INTEGRA® pieces were transferred to fresh 12 well plates to ensure any cells not attached to the matrix surface were removed. Fresh media containing proteins with peroxidase activity were added to the wells and the INTEGRA® pieces incubated for up to 14 days (“post-treatment” period) with the media changed every 7 days as necessary. At the end of the experiment the INTEGRA® pieces were harvested and fixed in 10% buffered formaldehyde before they were processed, embedded in paraffin wax, cut in cross-section and placed onto microscope slides for histological and immunohistochemical analysis.
To confirm proteins having peroxidase activity promote the generation of a three-dimensional human tissue by stimulating the production of collagen and other ECM components to fill the interstices of a three-dimensional framework or scaffold, INTEGRA® pieces collected from the experiments described in Example 3 were analysed for the production of Collagen I (as a representative ECM protein) using immunohistochemistry. […]

[2] = 25 μg/ml before and after addition of cells, 7 days, versus 7 and 14 day controls

Molecule | cellular integration and ECM production within Hylaform (dermis) | cellular integration and ECM production within Restylane (dermis) | cells within the interstices of the INTEGRA scaffold [1, 2] | number of fibroblast cells infiltrating and populating the INTEGRA (HFF cells; SBP 25 μg/ml pre-, pre+post- or post-treatment, versus 10% FBS control) | penetration of HFF cells into the scaffold (HFF cells; SBP 25 μg/ml, controls limited to about the top third) | cell-associated ECM within the interstices of the scaffold (adult fibroblast cells; [2]) | cells within the INTEGRA scaffold ([1]; 25 μg/ml, 14 days of treatment) | ECM production and integration (adult fibroblast cells; 25 μg/ml, 14 days, versus 14 days standard conditions)
lactoperoxidase [LP] | surprising increase in cellular infiltration and integration and cell-associated ECM production | surprising increase in cellular infiltration and integration and cell-associated ECM production | – | – | – | – | – | –
soy bean peroxidase [SBP] | – | – | many more cells were evident within the interstices of the scaffold | major influence on the number of fibroblast cells infiltrating and populating | penetrated the full thickness of the scaffold | much more cell-associated ECM was evident | – | –
B1 | Increased cellular integration and ECM production | Increased cellular integration and ECM production | – | – | – | – | even greater number of cells evident within the scaffold | much greater ECM production and integration
